From PMC2748101, “Transcriptome analysis of the responses of Staphylococcus aureus to antimicrobial peptides and characterization of the roles of vraDE and vraSR in antimicrobial resistance” (BMC Genomics, 2009)
Converted amounts (≈) assume the structure as drawn. Like-named read-outs stand apart in the source and are kept apart here. Where a SMILES comes first, the peptide text is derived from it. Bridges are numbered along the chain shown (N, C = ends). [ ]: non-standard residue; d: D form. The star is where a group is joined. Ileψ(thiazoline)Cys = CC[C@H](C)[C@H](N)C1=N[C@H](C(=O)*)CS1; dOrn = NCCC[C@@H](N)C(=O)O

Tests used:
[1] = tested on: S. aureus Newman
[2] = tested on: S. aureus RN4220; conditions: Mueller-Hinton broth, 16-24 h, 37°C, two-fold dilution series, performed twice
[3] = tested on: ΔvraSR/S. aureus Newman; conditions: for MIC: ΔvraSR/S. aureus Newman, 16-24 h, 37°C, two-fold dilution series, performed twice
[4] = tested on: S. aureus Newman; assay: qRT-PCR of gene induction in treated wild-type cells; assay type: cell-based, Staphylococcus aureus; conditions: 10 min; for Fold induction SA0205 / Fold induction groEL / Fold induction prsA / Fold induction vraD: 5 × MIC (temporin-L-NH2 subinhibitory 2 μg/ml, pentaglycine 20 μg/ml), treated/untreated, mean of three experiments (SD)
[5] = tested on: ΔvraDE/ RN4220; conditions: Mueller-Hinton broth, 16-24 h, 37°C, two-fold dilution series, performed twice
[6] = tested on: ΔvraSR/ RN4220; conditions: Mueller-Hinton broth, 16-24 h, 37°C, two-fold dilution series, performed twice
[7] = tested on: ΔvraDE/S. aureus Newman; conditions: Mueller-Hinton broth; for MIC: ΔvraDE/S. aureus Newman, 16-24 h, 37°C, two-fold dilution series, performed twice
[8] = tested on: wild-type S. aureus Newman; assay type: cell-based, Staphylococcus aureus
[9] = tested on: ΔvraSR/ RN4220; assay: microbe, parasite or virus in culture; conditions: Staphylococcus aureus
[10] = tested on: ΔvraSR/S. aureus Newman; assay: microbe, parasite or virus in culture; conditions: Staphylococcus aureus
[11] = tested on: S. aureus RN4220; assay: microbe, parasite or virus in culture; conditions: Staphylococcus aureus
[12] = tested on: ΔvraDE/ RN4220; assay: microbe, parasite or virus in culture; conditions: Staphylococcus aureus
[13] = tested on: ΔvraDE/S. aureus Newman; assay: microbe, parasite or virus in culture; conditions: Staphylococcus aureus
[14] = S. aureus Newman, Mueller-Hinton broth, 16-24 h, 37°C, two-fold dilution series, performed twice

## CC[C@H](C)[C@H](N)C1=N[C@H](C(=O)N[C@@H](CC(C)C)C(=O)N[C@H](CCC(=O)O)C(=O)N[C@H](C(=O)N[C@H]2CCCCNC(=O)[C@H](CC(N)=O)NC(=O)[C@@H](CC(=O)O)NC(=O)[C@H](Cc3cnc[nH]3)NC(=O)[C@@H](Cc3ccccc3)NC(=O)[C@H]([C@@H](C)CC)NC(=O)[C@@H](CCCN)NC2=O)[C@@H](C)CC)CS1 [Bacitracin] ({Ileψ(thiazoline)Cys}-L[dE]IK[dOrn]I[dF]H[dD]N; lactam 4-C)
[1]; [14]
  MIC: 20 µg/mL (≈ 14.1 µM)
[2]
  MIC: 20 µg/mL (≈ 14.1 µM)
[3]; Mueller-Hinton broth
  Difference in MIC (increased sensitivity), ΔvraSR mutant versus wild-type: 4 fold
  MIC: 5 µg/mL (≈ 3.51 µM)
[4]
  Fold induction SA0205: 51.4 (0.8) fold
  Fold induction groEL: 3.6 (0.1) fold
  Fold induction prsA: 27.9 (4.5) fold
  Fold induction vraD: 467.5 (15.3) fold
[4]; listed as bacitracin
  Fold induction SA0205: 30-50 fold
  Fold induction prsA: 30-50 fold
  Fold induction vraD: ~500 fold
[5]
  MIC: 2.5 µg/mL (≈ 1.76 µM)
[6]
  MIC: 5 µg/mL (≈ 3.51 µM)
[7]
  Difference in MIC, ΔvraDE mutant versus wild-type: about 10 fold
  MIC: 2.5 µg/mL (≈ 1.76 µM)

## CCCCCCCCCC(=O)N[C@@H](Cc1c[nH]c2ccccc12)C(=O)N[C@H](CC(N)=O)C(=O)N[C@@H](CC(=O)O)C(=O)N[C@@H]1C(=O)NCC(=O)N[C@@H](CCCN)C(=O)N[C@@H](CC(=O)O)C(=O)N[C@H](C)C(=O)N[C@@H](CC(=O)O)C(=O)NCC(=O)N[C@H](CO)C(=O)N[C@@H]([C@H](C)CC(=O)O)C(=O)N[C@@H](CC(=O)c2ccccc2N)C(=O)O[C@@H]1C [Daptomycin]
[1]; [14]
  MIC: 2.5 µg/mL (≈ 1.54 µM)
[2]
  MIC: 2.5 µg/mL (≈ 1.54 µM)
[3]; MIC, 100%, 50% (LL-37, nisin, Pep5) or 25% (hBD3) Mueller-Hinton broth
  Effect of the ΔvraSR mutation on sensitivity: did not affect the sensitivity
[3]; Mueller-Hinton broth
  MIC: 2.5 µg/mL (≈ 1.54 µM)
[5]
  MIC: 2.5 µg/mL (≈ 1.54 µM)
[6]
  MIC: 2.5 µg/mL (≈ 1.54 µM)
[7]
  MIC: 2.5 µg/mL (≈ 1.54 µM)

## O=C(O)CN(CCOCCOCCN(CC(=O)O)CC(=O)O)CC(=O)O [EGTA]
[8]
  Growth of wild-type strain in the presence of the antimicrobial: grew significantly

## CN[C@H](CC(C)C)C(=O)N[C@H]1C(=O)N[C@@H](CC(N)=O)C(=O)N[C@H]2C(=O)N[C@H]3C(=O)N[C@H](C(=O)N[C@H](C(=O)O)c4cc(O)cc(O)c4-c4cc3ccc4O)[C@H](O)c3ccc(c(Cl)c3)Oc3cc2cc(c3O[C@@H]2O[C@H](CO)[C@@H](O)[C@H](O)[C@H]2O[C@H]2C[C@](C)(N)[C@H](O)[C@H](C)O2)Oc2ccc(cc2Cl)[C@H]1O [Vancomycin]
[1]
  MIC: 1 µg/mL (≈ 0.69 µM)
[9]
  MIC: 0.5 µg/mL (≈ 0.345 µM)
[10]
  MIC: 1 µg/mL (≈ 0.69 µM)
[11]
  MIC: 1 µg/mL (≈ 0.69 µM)
[12]
  MIC: 1 µg/mL (≈ 0.69 µM)
[13]
  MIC: 1 µg/mL (≈ 0.69 µM)

## CO/N=C(\C(=O)N[C@@H]1C(=O)N2C(C(=O)O)=C(COC(C)=O)CS[C@H]12)c1csc(N)n1 [cefotaxime]
[8]
  Growth of wild-type strain in the presence of the antimicrobial: grew significantly

## CN(C)CCCN1c2ccccc2Sc2ccc(Cl)cc21 [chlorpromazine]
[8]
  Growth of wild-type strain in the presence of the antimicrobial: grew significantly

## A(D-Glu)K(D-Ala)GGGGGA(D-Glu)K(D-Ala) [Pentaglysin, pentaglycin peptide which mimics the peptide cross-link of S. aureus peptidoglycan]
[1]; 20 μg/ml
  Antimicrobial activity at the concentration used: not antimicrobial
[4]; 20 μg/ml
  Induction of vraD, SA0205, prsA and groEL (in words): did not induce any of the four genes
[4]
  Fold induction SA0205: 1.3 (0.1) fold
  Fold induction groEL: 1.1 (0.0) fold
  Fold induction prsA: 1.3 (0.0) fold
  Fold induction vraD: 1.0 (0.0) fold
